Measured values reported in PMC10111423, “Antimalarial Imidazopyridines Incorporating an Intramolecular Hydrogen Bonding Motif: Medicinal Chemistry and Mechanistic Studies” (ACS Infectious Diseases, 2023).
Converted amounts (≈) assume the structure as drawn.

Experiments:
[1] = In vitro microsomal stability, human liver microsomes; format: in vitro ADME; conditions: 1 μM, 0.4 mg/mL protein
Experimental: (§1) Xenotech, Kansas, USA), suspended in 0.1 M phosphate buffer (pH 7.4). (Details of this assay are described in the Supporting Information.) page 20: fold to attain six assay concentrations of 100-0.001 μg/mL. […] was used as the reference compound in this assay. The highest concentration of DMSO, which was used as the negative control, had no measurable effect on cell viability. After 44 hours of exposure of the cells to the test compounds, a solution of MTT was added. This was followed by an additional 4 hours of incubation at 37 °C. The assay plates were centrifuged, medium removed, and DMSO was added to the crystals. The amount of formazan was ascertained by measuring the absorbance at 540 nm. GraphPad Prism software was then used to generate IC50 values through a non-linear dose-response curve analysis. β-Hematin Inhibition Assay 20 mM stock solutions of controls and test compounds were made in DMSO. A solution […] was added to every well in columns 1-11 of a 96-well plate. 140 μL of water and 40 μL of 305.5 μM NP-40 were added to column 12 to mediate the formation of beta-hematin. 20 μL of test compounds (20 mM) were added to column 12 and 100 μL of this solution serially diluted to column 2, leaving column 1 blank (0 μM of test compound). 178.8 μL aliquot of hematin stock was suspended in 20 ml of a 1 M acetate buffer at pH 4.9. 100 μL of this hematin suspension was then added into each well, and the plates were incubated for ±5 hrs at 37°C. Subsequently, 32 μL of pyridine solution (20% water, 20% acetone, 10% 2M HEPES buffer at pH 7.4 and 50% pyridine) and 60 μL of acetone were added to all wells. The absorbances of plate wells were recorded at 405 nm on a SpectraMax plate reader. Sigmoidal dose-response curves with variable slopes were fitted to the absorbance data using GraphPad Prism to obtain the IC50 values for each compound. In vitro Microsomal Stability Assay The in vitro microsomal stability assay was performed in duplicate in a 96-well micro titre […] individually in human (pool of 50, mixed gender), rat (pool of 711, male Sprague Dawley) and mouse (pool of 1634, male CD1) liver microsomes (final protein concentration of 0.4 mg/mL; Xenotech, Kansas, USA), suspended in 0.1M phosphate buffer (pH 7.4). Incubations were S20 page 21: started by addition of NADPH (1 mM) as cofactor and shaken for 30 minutes at 37 °C. The reactions were then quenched by adding 300 μL of ice-cold acetonitrile containing internal standard (carbamazepine, 0.0236 μg/mL) and centrifuged. The supernatant was transferred to a fresh 96-well plate and analysed by LC-MS/MS (Agilent Rapid Resolution HPLC, AB SCIEX 4500 MS). The relative loss of parent compound over time was monitored and plots (concentration vs. time) were prepared per compound to determine the first order rate constant for compound depletion. This was in turn used to calculate half-life, in vitro intrinsic clearance and in vivo hepatic extraction ratio.6 Metabolite Identification Studies […] microsomes (MLM, male mouse CD1, Lot No. 1510043, Xenotech), magnesium chloride (5 mM) and NADPH (1 mM) in sodium phosphate buffer (100 mM, pH 7.4) for 60 minutes while shaking. The samples were then prepared by ice-cold acetonitrile precipitation, centrifuged, and filtered for LC-MS/MS analysis. […] Fluorescence Live-cell Microscopy […] […]

[2] = In vitro microsomal stability, rat liver microsomes; format: in vitro ADME; conditions: 1 μM, 0.4 mg/mL protein
Experimental: as §1

[3] = test system: chloroquine-sensitive (NF54) strain of P. falciparum; test: In vitro asexual blood-stage antiplasmodium pLDH assay, NF54 strain; format: cell-based; conditions: Plasmodium falciparum, NF54; pLDH, 72 h, n ≥ 3; read-out: In vitro antiplasmodium activity IC50 PfNF54 strain
Experimental: Compounds were screened against multi-drug-resistant (K1) and sensitive (NF54) strains of P. falciparum in vitro using a parasite lactate dehydrogenase assay (pLDH) (the method is described fully in the Supporting Information). […]
In vitro Asexual Blood Stage Antiplasmodium Assay
Parasites were cultured as per the method of Trager and Jensen,1 with modifications. IC50 values were determined using parasite lactate dehydrogenase as a marker for survival (Makler […]
et al, 1993). The test samples were prepared to a 10 mmol/L stock solution in 100% DMSO.
Samples were tested as a suspension if not completely dissolved. Further dilutions to the desired starting concentration were freshly prepared in growth media on each occasion of the experiment. The standard antimalarial drugs chloroquine (CQ) and artesunate (Arts) were used as the reference drug in all experiments. A full dose-response was performed for all compounds in a 96-well plate to determine the concentration inhibiting 50% of parasite growth (IC50– value). Test samples were tested at a starting concentration of 6mmol/L, which was then serially diluted 2-fold in growth medium to generate the tested concentration range. The same dilution technique was used for all samples. CQ and Arts were tested from a starting concentration of 1µg/mL. The highest concentration of solvent to which the parasites were exposed was <0.1% and has no measurable effect on the parasite viability (data not shown).
The assay plate was incubated at 37 °C for 72h in a sealed gas chamber under 3% O2 and 4% CO2 with the balance being N2. After 72h, the wells in the assay plate were gently resuspended, and 15µL from each well was transferred to a duplicate plate containing 100µL of Malstat reagent and 25µL of nitroblue tetrazolium solution in each well. Plates were left to develop for 20 minutes in the dark and then absorbance of each well was quantified using a spectrophotometer at 620nm wavelength.
The remaining population of parasites at each concentration of the test compound was determined by comparing the absorbance of each well to the absorbance of a well containing […]
the drug-free control. […]
The initial 100 µg/mL solution is serially diluted 10-

[4] = In vitro microsomal stability, mouse liver microsomes; format: in vitro ADME; conditions: 1 μM, 0.4 mg/mL protein
Experimental: as §1

[5] = Solubility; format: physicochemical; conditions: pH 6.5, aqueous buffer
From the text: Table 1 In Vitro Antiplasmodium Activity, Cytotoxicity, BHIA, and Solubility | column: Solubility pH 6.5, μM

Compound	Microsomal EH (hepatic extraction ratio), human [1]	Microsomal EH (hepatic extraction ratio), rat [2]	IC50 [3]	Microsomal EH (hepatic extraction ratio), mouse [4]	solubility [5]
CCN(CCNc1cc2[nH]c(-c3ccc(C(F)(F)F)nc3)nc2cn1)Cc1ccc(Cl)cc1O [Compound 19, 5-Chloro-2-((ethyl(2-((2-(6-(trifluoromethyl)pyridin-3-yl)-1H-imidazo[4,5-c]pyridin-6-yl)amino)ethyl)amino)methyl)phenol]	0.80	0.78	380 nM	0.84	140 µM (≈ 68.7 µg/mL)
CCN(CCNc1cc2[nH]c(-c3cccc(C(F)(F)F)c3)nc2cn1)Cc1ccc(Cl)cc1O [Compound 14, 5-Chloro-2-((ethyl(2-((2-(3-(trifluoromethyl)phenyl)-1H-imidazo[4,5-c]pyridin-6-yl)amino)ethyl)amino)methyl)phenol]	0.85	0.70	80 nM	0.81	65 µM (≈ 31.8 µg/mL)
CCN(CCNc1cc2[nH]c(C3CC3)nc2cn1)Cc1ccc(Cl)cc1O [Compound 5, 5-Chloro-2-(((2-((2-cyclopropyl-1H-imidazo[4,5-c]pyridin-6-yl)amino)ethyl)(ethyl)amino)methyl)phenol]	0.54	0.73	390 nM	0.81	25 µM (≈ 9.65 µg/mL)
CCN(CCNc1cc2[nH]c(C3CCCC3)nc2cn1)Cc1ccc(Cl)cc1O [Compound 1, 5-Chloro-2-(((2-((2-cyclopentyl-1H-imidazo[4,5-c]pyridin-6-yl)amino)ethyl)(ethyl)amino)methyl)phenol]	0.60	0.75	340 nM	0.88	15 µM (≈ 6.21 µg/mL)
CCN(CCNc1cc2[nH]c(C3(C)CC3)nc2cn1)Cc1ccc(Cl)cc1O [Compound 6, 5-Chloro-2-((ethyl(2-((2-(1-methylcyclopropyl)-1H-imidazo[4,5-c]pyridin-6-yl)amino)ethyl)amino)methyl)phenol]	0.71	0.73	490 nM	0.90	200 µM (≈ 80 µg/mL)
